Data as given in US20230219978A1, “COMPOUND HAVING MACROCYCLIC STRUCTURE AND USE THEREOF” (SCINNOHUB PHARMACEUTICAL CO., LTD, priority 2020, published 2023).

Tests used:
Type in all cases: biochemical
RET wt = molecular target: T1, RET wt (Homo sapiens, UniProt P07949); test: In vitro kinase activity assay (mobility shift assay), RET wild type; settings: ATP 16 μM, reaction time 60 min
T1 construct: purchased Carna 08-159
Description: (§1) The IC50 (half inhibitory concentration) values of the compounds were used as an indicator to evaluate the inhibitory effect of the compound on RET wild-type, RET mutant, TRKa, SRC, BTK and/or mutated BTK kinase.
(§2) Using the method of Mobility shift assay, the compounds were tested for inhibitory activity against the following kinases: RET wild type, RET mutant, TRKa, SRC, BTK and/or mutated BTK. The initial concentration of the test compound was 1000 nM, 3-fold dilution, 10 concentrations, detected in a well for each concentration.
(§3) 20 mM hydroxyethylpiperazineethanesulfonic acid (Hepes) (pH 7.5) buffer, 10 mM MgCl2, 1 mM ethylene glycol bis(aminoethyl ether)tetraacetic acid (EGTA), 0.02% polyoxyethylene lauryl ether (Brij35), 0.02 mg/ml […] (BSA), 0.1 mM Na3VO4, 2 mM dithiothreitol (DTT), 1% DMSO.
(§4) The test compounds were dissolved in 100% dimethyl sulfoxide (DMSO) system, and prepared as 10 mM for use, and stored in a nitrogen cabinet away from light.
(§5) • (1) Preparing 1× kinase reaction buffer. • (2) Preparation of compound concentration gradient: the initial concentration of the compounds was 1000 nM, which was diluted as 100-fold final concentration of solution in 100% dimethyl sulfoxide (DMSO) in a 384-well plate. The compound was accurately 3-fold diluted with the kinase buffer solution, 10 concentrations in total, and the final concentration was 0.0508 nM. The 100-fold final concentration of solution in 100% dimethyl sulfoxide (DMSO) was obtained by dilution in 384 source plate. The liquid separator Echo 550 was used to transfer 250 nl of 100-fold final concentration of compound to the target 384 well plate. 250 nl of DMSO was added to the positive and negative control wells. • (3) 2.5-fold final concentration of kinase solution was prepared by the 1× kinase buffer. • (4) 10 4, of 2.5-fold final concentration of kinase solution was added to the compound well and the positive control well, respectively; 10 4, of 1× kinase buffer was added to the negative control well. • (5) After centrifuging at 1000 rpm for 30 second, the reaction plate was shaken and mixed, followed by incubation at room temperature for 10 min. • (6) a mixed solution of 25/15-fold final concentration of adenosine triphosphate (ATP) and kinase substrate was prepared by 1× kinase buffer. • (7) The mixed solution (15 μL) of 25/15-fold final concentration of adenosine triphosphate (ATP) and substrate was added to initiate the reaction. • (8) 384-well plate was centrifuged at 1000 rpm for 30 second, shaken and mixed well, and then incubated at room temperature for 30-240 min. • (9) After stopping the kinase reaction, the plate was centrifugated at 1000 rpm for 30 second, shaken and mixed well. • (10)The conversion rate was read with Caliper EZ Reader.
(§6) wherein Conversion%_sample is the conversion rate reading of the sample; Conversion%_min: the mean value of negative control wells, representing the conversion rate reading of wells without enzymes; Conversion%_max: the mean value of positive control wells, representing the conversion rate reading of wells without compound inhibition.
(§7) The log value of concentration was taken as the X axis, and the percentage inhibition rate was taken as the Y axis. Graphpad 6.0 analysis software was used to fit the dose-response curve, so as to obtain the IC50 value of each compound on the enzyme activity

TRKa = molecular target: T2, TRKa (Homo sapiens, UniProt P04629); test: In vitro kinase activity assay (mobility shift assay), TRKa; settings: ATP 47.8 μM, reaction time 30 min
T2 construct: purchased Carna 08-186
Description: as §1, §2, §3, §4, §5, §6, §7

RET G810R = molecular target: T3, RET G810R (Homo sapiens, UniProt P07949, G810R); test: In vitro kinase activity assay (mobility shift assay), RET G810R; settings: ATP 201 μM, reaction time 4 h
T3 construct: purchased Proqinase 1724-0000-1
Description: as §1, §2, §3, §4, §5, §6, §7

BTK = molecular target: T4, BTK (Homo sapiens, UniProt Q06187); test: In vitro kinase activity assay (mobility shift assay), BTK; settings: ATP 71 μM, reaction time 30 min
T4 construct: purchased Carna 08-180
Description: as §1, §2, §3, §4, §5, §6, §7

BTK C481S = molecular target: T5, BTK C481S (Homo sapiens, UniProt Q06187, C481S); test: In vitro kinase activity assay (mobility shift assay), BTK C481S; settings: ATP 90 μM, reaction time 30 min
T5 construct: purchased Carna 08-547
Description: as §1, §2, §3, §4, §5, §6, §7

T4 sequence (Q06187 whole entry): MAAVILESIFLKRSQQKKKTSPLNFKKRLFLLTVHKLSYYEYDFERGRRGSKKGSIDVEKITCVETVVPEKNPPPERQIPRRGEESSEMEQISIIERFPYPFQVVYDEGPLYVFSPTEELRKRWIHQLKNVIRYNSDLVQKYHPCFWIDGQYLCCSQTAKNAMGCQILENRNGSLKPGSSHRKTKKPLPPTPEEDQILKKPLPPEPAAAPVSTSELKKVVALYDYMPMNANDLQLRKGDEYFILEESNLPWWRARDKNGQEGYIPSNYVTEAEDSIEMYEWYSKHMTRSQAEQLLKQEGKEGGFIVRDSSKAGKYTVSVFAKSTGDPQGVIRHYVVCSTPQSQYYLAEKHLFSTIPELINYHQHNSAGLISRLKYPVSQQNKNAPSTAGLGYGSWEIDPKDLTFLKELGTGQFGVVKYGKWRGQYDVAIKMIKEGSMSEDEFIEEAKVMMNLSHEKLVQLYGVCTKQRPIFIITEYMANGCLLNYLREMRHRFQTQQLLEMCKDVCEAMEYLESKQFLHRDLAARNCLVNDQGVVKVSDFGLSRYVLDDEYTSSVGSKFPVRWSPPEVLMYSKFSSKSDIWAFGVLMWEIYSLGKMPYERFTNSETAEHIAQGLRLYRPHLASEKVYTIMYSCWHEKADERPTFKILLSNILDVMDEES
T2 sequence (P04629 33-796): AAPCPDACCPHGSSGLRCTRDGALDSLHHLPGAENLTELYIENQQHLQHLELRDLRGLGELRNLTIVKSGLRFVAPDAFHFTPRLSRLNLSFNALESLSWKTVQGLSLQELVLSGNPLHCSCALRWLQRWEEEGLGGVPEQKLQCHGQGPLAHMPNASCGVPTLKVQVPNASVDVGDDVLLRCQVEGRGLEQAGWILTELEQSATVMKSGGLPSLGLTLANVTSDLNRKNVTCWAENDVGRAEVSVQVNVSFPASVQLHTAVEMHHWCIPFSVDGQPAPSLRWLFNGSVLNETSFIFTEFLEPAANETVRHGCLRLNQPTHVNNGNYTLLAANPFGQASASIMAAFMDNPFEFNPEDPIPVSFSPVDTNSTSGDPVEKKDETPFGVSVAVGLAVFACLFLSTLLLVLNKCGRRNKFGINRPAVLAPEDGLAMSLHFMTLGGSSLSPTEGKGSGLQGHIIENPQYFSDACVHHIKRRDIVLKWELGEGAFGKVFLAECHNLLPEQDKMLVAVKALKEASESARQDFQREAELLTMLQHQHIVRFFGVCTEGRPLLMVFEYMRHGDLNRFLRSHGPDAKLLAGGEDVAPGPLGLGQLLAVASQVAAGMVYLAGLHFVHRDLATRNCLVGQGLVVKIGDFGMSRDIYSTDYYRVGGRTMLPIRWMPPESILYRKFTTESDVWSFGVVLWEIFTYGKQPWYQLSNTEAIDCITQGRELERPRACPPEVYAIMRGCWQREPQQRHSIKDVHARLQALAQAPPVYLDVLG
T1 sequence (P07949 29-1114): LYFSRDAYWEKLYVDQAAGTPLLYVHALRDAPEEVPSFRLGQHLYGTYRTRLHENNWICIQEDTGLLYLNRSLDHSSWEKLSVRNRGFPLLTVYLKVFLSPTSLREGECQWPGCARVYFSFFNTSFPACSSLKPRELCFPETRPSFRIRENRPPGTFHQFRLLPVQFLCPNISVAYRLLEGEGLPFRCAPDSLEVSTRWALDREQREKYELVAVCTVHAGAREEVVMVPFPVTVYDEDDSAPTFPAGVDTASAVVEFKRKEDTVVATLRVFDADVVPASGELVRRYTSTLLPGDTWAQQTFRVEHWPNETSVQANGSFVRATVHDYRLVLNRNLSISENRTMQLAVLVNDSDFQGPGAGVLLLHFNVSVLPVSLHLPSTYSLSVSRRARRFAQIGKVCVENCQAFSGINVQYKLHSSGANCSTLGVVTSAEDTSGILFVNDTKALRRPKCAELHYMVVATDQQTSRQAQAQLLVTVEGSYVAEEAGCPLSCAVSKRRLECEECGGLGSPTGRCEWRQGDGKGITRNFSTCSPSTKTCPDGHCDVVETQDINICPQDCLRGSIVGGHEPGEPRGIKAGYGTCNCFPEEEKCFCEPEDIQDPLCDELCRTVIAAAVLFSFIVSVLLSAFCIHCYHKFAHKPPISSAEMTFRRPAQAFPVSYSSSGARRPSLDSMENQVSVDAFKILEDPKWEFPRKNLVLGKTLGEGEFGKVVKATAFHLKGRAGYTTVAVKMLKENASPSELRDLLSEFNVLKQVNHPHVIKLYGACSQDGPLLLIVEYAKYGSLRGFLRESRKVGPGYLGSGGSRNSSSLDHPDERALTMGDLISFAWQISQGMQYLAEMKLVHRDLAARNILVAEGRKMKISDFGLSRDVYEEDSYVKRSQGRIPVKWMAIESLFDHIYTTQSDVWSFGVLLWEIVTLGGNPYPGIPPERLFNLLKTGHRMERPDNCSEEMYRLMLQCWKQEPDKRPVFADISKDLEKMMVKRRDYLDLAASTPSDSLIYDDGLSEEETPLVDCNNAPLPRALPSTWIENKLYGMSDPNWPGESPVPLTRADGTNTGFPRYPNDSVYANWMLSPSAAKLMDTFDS
T5 sequence (Q06187 whole entry C481S): as the sequence (Q06187 whole entry) above, with C481S counted along it
T3 sequence (P07949 29-1114 G810R): as the sequence (P07949 29-1114) above, with G782R counted along it

Row | Structure (SMILES) | IC50 (RET wt) | IC50 (TRKa) | IC50 (RET G810R) | IC50 (BTK) | IC50 (BTK C481S)
1 | C[C@H]1CNC(=O)c2cnn3cc(-c4cccc(F)c4)c(nc23)NCc2cc(F)cnc2O1 [Compound 7, (S, 1^3E, 1^4E)-1^6-(3-fluorophenyl)-4^5-fluoro-6-methyl-5-oxa-2,8-diaza-1(5,3)-pyrazolo[1,5-a]pyrimidina-4(3,2)-pyridinacyclononaphan-9-one] | 10 nM | 1850 nM |  |  | 
2 | C[C@H]1CNC(=O)c2cnn3cc(-c4ccc(F)cc4)c(nc23)NCc2cc(F)cnc2O1 [Compound 8, (S, 1^3E, 1^4E)-1^6-(4-fluorophenyl)-4^5-fluoro-6-methyl-5-oxa-2,8-diaza-1(5,3)-pyrazolo[1,5-a]pyrimidina-4(3,2)-pyridinacyclononaphan-9-one] | 13 nM | 1240 nM |  |  | 
3 | Cc1ccc(-c2cn3ncc4c3nc2NCc2cc(F)cnc2O[C@@H](C)CNC4=O)cc1 [Compound 11, (S, 1^3E, 1^4E)-1^6-(4-methylphenyl)-4^5-fluoro-6-methyl-5-oxa-2,8-diaza-1(5,3)-pyrazolo[1,5-a]pyrimidina-4(3,2)-pyridinacyclononaphan-9-one] | 15 nM | 925 nM |  |  | 
4 | Cc1cccc(-c2cn3ncc4c3nc2NCc2cc(F)cnc2O[C@@H](C)CNC4=O)c1 [Compound 12, (S, 1^3E, 1^4E)-1^6-(3-methylphenyl)-4^5-fluoro-6-methyl-5-oxa-2,8-diaza-1(5,3)-pyrazolo[1,5-a]pyrimidina-4(3,2)-pyridinacyclononaphan-9-one] | 36 nM | > 10000 nM |  |  | 
5 | Cc1ccccc1-c1cn2ncc3c2nc1NCc1cc(F)cnc1O[C@@H](C)CNC3=O [Compound 13, (S, 1^3E, 1^4E)-1^6-(2-methylphenyl)-4^5-fluoro-6-methyl-5-oxa-2,8-diaza-1(5,3)-pyrazolo[1,5-a]pyrimidina-4(3,2)-pyridinacyclononaphan-9-one] | 5.3 nM | > 10000 nM |  |  | 
6 | C[C@H]1CNC(=O)c2cnn3cc(-c4ccc(C(F)(F)F)cc4)c(nc23)NCc2cc(F)cnc2O1 [Compound 14, (S, 1^3E, 1^4E)-1^6-(4-trifluoromethylphenyl)-4^5-fluoro-6-methyl-5-oxa-2,8-diaza-1(5,3)-pyrazolo[1,5-a]pyrimidina-4(3,2)-pyridinacyclononaphan-9-one] | 127 nM | > 10000 nM |  |  | 
7 | C[C@H]1CNC(=O)c2cnn3cc(-c4ccccc4C(F)(F)F)c(nc23)NCc2cc(F)cnc2O1 [Compound 16, (S, 1^3E, 1^4E)-1^6-(2-trifluoromethylphenyl)-4^5-fluoro-6-methyl-5-oxa-2,8-diaza-1(5,3)-pyrazolo[1,5-a]pyrimidina-4(3,2)-pyridinacyclononaphan-9-one] | 543 nM | 1370 nM |  |  | 
8 | C[C@H]1CNC(=O)c2cnn3cc(-c4ccc(=O)n(C)c4)c(nc23)NCc2cc(F)cnc2O1 [Compound 20, (S, 1^3E, 1^4E)-4^5-fluoro-6-methyl-1^6-(1-methyl-6-oxo-1,6-dihydropyridin-3-yl)-5-oxa-2,8-diaza-1(5,3)-pyrazolo[1,5-a]pyrimidin-4(3,2)-pyridinacyclononaphan-9-one] | > 10000 nM | > 10000 nM |  |  | 
9 | C[C@H]1CNC(=O)c2cnn3cc(-c4ccc(Cl)cc4Cl)c(nc23)NCc2cc(F)cnc2O1 [Compound 21, (S, 1^3E, 1^4E)-1^6-(2,4-dichlorophenyl)-4^5-fluoro-6-methyl-5-oxa-2,8-diaza-1(5,3)-pyrazolo[1,5-a]pyrimidin-4(3,2)-pyridinacyclononaphan-9-one] | 5.9 nM | > 10000 nM |  |  | 
10 | C[C@H]1CNC(=O)c2cnn3cc(-c4c(F)cccc4F)c(nc23)NCc2cc(F)cnc2O1 [Compound 22, (S, 1^3E, 1^4E)-1^6-(2,6-difluorophenyl)-4^5-fluoro-6-methyl-5-oxa-2,8-diaza-1(5,3)-pyrazolo[1,5-a]pyrimidin-4(3,2)-pyridinacyclononaphan-9-one] | 21 nM | 304 nM |  |  | 

Continued, values first:

Row | IC50 (RET wt) | IC50 (TRKa) | IC50 (RET G810R) | IC50 (BTK) | IC50 (BTK C481S) | Structure (SMILES)
11 | 448 nM | > 10000 nM |  |  |  | C[C@H]1CNC(=O)c2cnn3cc(C4CC4)c(nc23)NCc2cc(F)cnc2O1 [Compound 23, (S, 1^3E, 1^4E)-1^6-cyclopropyl-4^5-fluoro-6-methyl-5-oxa-2,8-diaza-1(5,3)-pyrazolo[1,5-a]pyrimidin-4(3,2)-pyridinacyclononaphan-9-one]
12 | 366 nM | > 10000 nM |  |  |  | C[C@H]1CNC(=O)c2cnn3cc(Nc4ccccc4)c(nc23)NCc2cc(F)cnc2O1 [Compound 25, (S, 1^3E, 1^4E)-4^5-fluoro-6-methyl-1^6-phenylamino-5-oxa-2,8-diaza-1(5,3)-pyrazolo[1,5-a]pyrimidina-4(3,2)-pyridinacyclononaphan-9-one]
13 | 9 nM | > 10000 nM |  |  |  | C[C@H]1CNC(=O)c2cnn3cc(-c4ccccc4)c(nc23)N[C@H](C)c2cc(F)cnc2O1 [Compound 26, (1^3E, 1^4E, 3R, 6S)-4^5-fluoro-3,6-dimethyl-1^6-phenyl-5-oxa-2,8-diaza-1(5,3)-pyrazolo[1,5-a]pyrimidin-4(3,2)-pyridinacyclononaphan-9-one]
14 | 20 nM | > 10000 nM |  |  |  | O=C1N[C@H]2C[C@H](C2)Oc2ncc(F)cc2CNc2nc3c1cnn3cc2-c1ccccc1 [Compound 29]
15 | 3.9 nM |  | 70 nM | 346 nM | 42.4 nM | CC(C)OC(=O)Nc1ccc(-c2cn3ncc4c3nc2NCc2cc(F)cnc2O[C@@H](C)CNC4=O)c(Cl)c1 [Compound 45, iso-propyl 3-chloro-4-((S, 1^3E, 1^4E)-4^5-fluoro-6-methyl-9-oxo-5-oxa-aza-1(5,3)-pyrazolo[1,5-a]pyrimidin-4(3,2)-pyridinacyclononaphan-1^6-yl)phenyl) carbamate]
16 | 0.83 nM |  |  | 1.8 nM | 1.48 nM | C[C@H]1CNC(=O)c2cnn3c(N)c(-c4ccc(Cl)cc4)c(nc23)NCc2cc(F)cnc2O1 [Compound 50, (S, 1^3E, 1^4E)-1^7-amino-1^6-(4-chlorophenyl)-4^5-fluoro-6-methyl-5-oxa-2,8-diaza-1(5,3)-pyrazolino[1,5-a]pyrimidin-4(3,2)-pyridinacyclononaphan-9-one]
17 | 1.6 nM |  |  | 1 nM | 1.9 nM | C[C@H]1CNC(=O)c2cnn3c(N)c(-c4ccc(F)cc4)c(nc23)NCc2cc(F)cnc2O1 [Compound 51, (S, 1^3E, 1^4E)-1^7-amino-1^6-(4-fluorophenyl)-4^5-fluoro-6-methyl-5-oxa-2,8-diaza-1(5,3)-pyrazolino[1,5-a]pyrimidin4(3,2)-pyridinacyclononaphan-9-one]
18 | > 1000 nM |  | > 1000 nM | > 1000 nM | > 1000 nM | C[C@H]1CNC(=O)c2cnn3c(N)c(-c4ccc5[nH]ccc5c4)c(nc23)NCc2cc(F)cnc2O1 [Compound 53, (S, 1^3E, 1^4E)-1^7-amino-4^5-fluoro-1^6-(1H-indo1-5-yl)-6-methyl-5-oxo-2,8-diaza-1(5,3)-pyrazolo[1,5-a]pyrimidin-4(3,2)-pyridinacyclononaphan-9-one]
19 | 2.1 nM |  |  | 3.5 nM | 6.6 nM | Nc1c(-c2ccccc2)c2nc3c(cnn13)C(=O)NCCOc1ncc(F)cc1CN2 [Example 65, (1^3E, 1^4E)-1^7-amino-4^5-fluoro-1^6-phenyl-5-oxa-2,8-diaza-1(5,3)-pyrazolino[1,5-a]pyrimidin-4(3,2)-pyridinacyclononaphan-9-one]
